From US5380759A, “Methyl N-[6-(3,4,5-trimethoxybenzloxy)imidazo[1,2-b]pyridazin-2-zyl]carbamate used to treat leukemia” (priority 1987, dated 1995)

Columns and labels:
tubulin = assay: Turbidimetric assay of tubulin polymerisation; format: biochemical, horse; settings: 37° C., increase in A350nm 10 min after lag phase; read-out: Total tubulin polymerisation IC50
Description: A) Tubulin Polymerisation Assay
1. Preparation of tubulin
All manipulations are performed at 4° C. unless otherwise specified. The horse brain is washed in ice-cold BBG buffer and superficial meninges and blood vessels removed. After weighing, cerebral cortices are chopped, homogenised in 75 ml BBG buffer/100 g brain, centrifuged at 6500 g for 15 min and after removal of […], re-centrifuged at 100,000 g for 75 min. The volume of the supernatant (Vml) is measured and V/10 ml 10 mM GTP (Li salt) in H2 O added. The mixture is incubated in sealed centrifuge tubes (30 min, 34° C.) in a shaking water bath to polymerise the tubulin. After polymerisation the tubes are balanced and centrifuged at 100,000 g, (1 h at 27° C.) in a pre-warmed rotor. The high-speed pellet is resuspended in V/4 ml BB buffer and the preparation stirred on ice for 30 min and centrifuged at 100,000 g (1 h at 4° C.) to remove the cold-stable microtubules. An equal volume of BB2G buffer is added to the supernatant which is frozen rapidly in 5 ml samples in plastic weighing dishes floated on a solid CO2 /ethanol slurry, and stored overnight at -80° C. After ca. 18 hours the frozen samples of tubulin are thawed, 10 mM GTP in H2 O added to give a final concentration of 1 mM, and the new volume (Wml), is measured. The polymerisation/depolymerisation cycle is repeated exactly as above but substituting W for V to give twice-cycled tubulin.
2. Turbidimetric Assay of Tubulin Polymerisation
Apparatus: recording spectrophotometer with a 6-position, thermostatted cuvette holder; full scale deflection=0.2 absorbance units.
In a 1 ml spectrophotometer cuvette are mixed 100 μl 10 mM GTP (Li salt) made up in BB buffer, 10 μl H2 O or DMSO-depending on selected drug solvent, BB buffer and tubulin preparation such that the final increase in A350nm is 0.15 units after 16 mins (approx. 100 μl of tubulin prep. or 2.5 mg protein) in a final volume of 1 ml at 37° C. All reagents are stored on ice.
Polymerisation is initiated by raising the temperature to 37° C. and the increase in A350nm of triplicate samples against a reference cuvette is recorded. The reference sample includes a similar incubation mixture either without tubulin or with the addition of 1 mM Ca^2+. The increase over initial A350nm 10 min after the completion of lag phase (control polymerisation is 80% complete within this time) is calculated and expressed as a percentage of the control value, for a range of drug concentrations. The drug concentration required to give a 50% change (IC50) in the control value is determined.

P388 D1 cells = assay: P388 D1 colony-forming assay; format: cell-based; settings: Mus musculus, P388D1; 24 h exposure, 14 days colony growth; read-out: IC50 colony formation
Description: B) P338D1 Colony-forming Assay
In this assay, cells from an in vitro-adapted line of the mouse lymphoid neoplasm, P388 are first exposed to serially diluted concentrations of test compound over a 24 hour period in culture. Thereafter, the ability of such treated cells to form discrete colonies over a 14 day period after resuspension in a semi-solid drug-free medium is determined.
Initially cells in log growth are plated into individual 25 cm^2 tissue culture flasks each containing a final volume of 5 mls of Hepes buffered RPMI 1640 culture medium supplemented with 10 percent foetal calf serum, antibiotics and test compound. All compounds are formulated initially at appropriate concentrations in DMSO, 25 microliters of which is then added to each flask. All compounds are evaluated at concentrations ranging serially in four fold decrements from a top concentration some four fold greater than that already known to inhibit the proliferation of these cells by about 80 to 90 percent in the primary proliferative assay.
After 24 hrs exposure to the test compound the cells are counted and a known number of live cells transferred to a 15 ml centrifuge tube to which 4 mls of a 0.25 percent low temperature gelling agarose solution in complete RPMI tissue culture medium is then added. After 13 days incubation at 37° C., 1 ml of 1% p-Iodonitrotetrazolium violet is added to the top of each tube and allowed to permeate through the agarose for a further 24 to 48 hrs. This dye is metabolised by living cells to produce an insoluble red crystalline product which facilitates counting of the colonies. Samples are taken from each tube and the number of colonies containing a minimum of 50 cells is determined. The concentration of compound necessary to inhibit colony formation by 50 percent relative to that of control cells incubated under identical conditions but in the absence of the test compound is determined.

P388/O tumour = assay: Lymphocytic leukaemia P388/O test; format: in vivo, mouse; settings: Mus musculus, P388, ip
Description: C. Lymphocytic Leukemia P388/O Test
(§1) CD2-F1 mice, of the same sex, weighing within a 3 gram range surrounding 20 g, are used for this test. Control and test animals are injected intraperitoneally with a suspension of 10^6 viable P388/O tumour cells on day 0. In each test several dose levels which bracket the LD20 for the compound are evaluated; each dose level group contains 6 animals. The test compounds are prepared either in physiologic saline containing 0.05% Tween 80 or distilled water containing 5% dextrose and are administered intraperitoneally on days 1,5 and 9 relative to tumour implant. Doses are on a mg/kg basis according to individual animals' body weights. The day of death for each animal is recorded and the median day of death identified for each group. The difference between the median survival time for treated and control groups is expressed as a percentage increase in life span (% ILS).

LD20 (Mouse) = format: in vivo; settings: i.p. days 1, 5 and 9, CD2-F1 mice, observed up to 14 days
[1] = tested on: DLD-1 human colon carcinoma cells; assay: In vitro activity against human tumour cell line DLD-1 (proliferation); format: cell-based; settings: DLD-1, 96 h, methylene blue, read-out: IC50
Description: (§2) Cells from the human tumour cell lines DLD-1, HCT-116, WiDr and A549 are exposed to serially diluted concentrations of test compounds over a 96 hour period in culture. The ability of such cells to proliferate over the test period is determined.
(§3) Cells in log growth are plated into 96 well multiwell tissue culture dishes in 100 μl/well of RPMI 1640 culture medium supplemented with 10% foetal calf serum, antibiotics and test compound. All compounds are formulated initially at appropriate concentrations in DMSO, the final concentrations in this solvent being twenty times that required in the plate. A final 1 in 10 dilution in complete medium is then made before adding 100 μl to each well of the plate. All compounds are evaluated at concentrations ranging serially in four fold decrements from a top concentration some four fold greater than that already known to inhibit the proliferation of cells from the mouse lymphoid neoplasm, P388D1 by about 80 to 90 percent in a primary proliferative assay.
(§4) After 96 hours the proliferation of cells exposed to test compound is compared with control untreated cells by one of two methods:
a) Culture supernatants are aspirated and cells fixed and stained by adding a solution of methylene blue (5 g per liter of 50% ethanol: water, 100 μl/well). After 30 minutes at room temperature unbound stain is washed off by immersing plates in water. Stained cells are solubilised overnight using 1% Sarkosyl (Sigma) in phosphate-buffered saline (100 μl/well). Absorbances are read by an ELISA plate spectrophotometer at a wavelength of 620 nm. The IC50 is defined as that concentration of drug which decreases absorbance to 50% of that in control (drug-free) cultures. This method is used for the DLD-1 cell line.

[2] = tested on: WiDr human colon adenocarcinoma cells; assay: In vitro activity against human tumour cell line WiDr (proliferation); format: cell-based; settings: 96 h, MTT, read-out: IC50
Description: as §2, §3, §4
(§5) b) 20 μl of MTT (5 mg/ml in PBS) is added to each well. After an incubation period of 4 hours the medium from each well is aspirated and replaced with 200 μl DMSO to dissolve the formazan crystals formed. Absorbances are read by an ELISA plate spectrophotometer at a wavelength of 540 nm. The IC50 is defined as that concentration of drug which decreases absorbance to 50% of that in control (drug-free) cultures. This method is used for the WiDr, HCT-116 and A549 cell lines.

[3] = tested on: HCT-116 human colon carcinoma cells; assay: In vitro activity against human tumour cell line HCT-116 (proliferation); format: cell-based; settings: HCT-116, 96 h, MTT, read-out: IC50
Description: as §2, §3, §4, §5

[4] = tested on: A549 human lung carcinoma cells; assay: In vitro activity against human tumour cell line A549 (proliferation); format: cell-based; settings: A549, 96 h, MTT, read-out: IC50
Description: as §2, §3, §4, §5

P388/MTX = assay: In vivo activity against drug resistant tumour P388/MTX; design: species or system mouse; settings: optimum dose 3.0 mg/kg
Description: as §1
(§6) E. Activity Against Drug-Resistant Tumours
(§7) Using a similar procedure to the Lymphocytic Leukaemia P388/O test, the compound of Example 1 was evaluated against P388/O tumours which had been made resistant to the following standard, clinically used anti-tumour agents: […]

microtubule function = settings: cited from earlier work
P388/VCR = assay: In vivo activity against drug resistant tumour P388/VCR; design: species or system mouse; settings: optimum dose 1.5 mg/kg
Description: as §1, §6, §7

CCOC(=O)Nc1cn2nc(OCc3cc(OC)c(OC)c(OC)c3)ccc2n1 [Example 7, Ethyl N-[6-(3,4,5-trimethoxybenzyloxy)imidazo[1,2-b]pyridazin-2-yl]carbamate]
IC50 (tubulin): 520 nM | IC50 (P388 D1 cells): 6.34 nM | ILS at 5 mg/kg (P388/O tumour; 5 mg/kg i.p. days 1, 5 and 9): 111% | LD50 (LD20 (Mouse)): 15 mg/kg | IC50 [1]: 5.92 nM | IC50 [2]: 19.7 nM | IC50 [3]: 8.25 nM | IC50 [4]: 22.4 nM

COCCOC(=O)Nc1cn2nc(OCc3cc(OC)c(OC)c(OC)c3)ccc2n1 [Example 8, 2-Methoxyethyl N-[6-(3,4,5-trimethoxybenzyloxy)imidazo[1,2-b]pyridazin-2-yl]carbamate]
IC50 (tubulin): 230 nM | IC50 (P388 D1 cells): 2.93 nM | ILS at 10 mg/kg (P388/O tumour; 10 mg/kg i.p. days 1, 5 and 9): 44% | LD50 (LD20 (Mouse)): 15 mg/kg | IC50 [1]: 8.82 nM | IC50 [2]: 41 nM | IC50 [3]: 20.5 nM | IC50 [4]: 39 nM

CN(Cc1cnc2nc(N)nc(N)c2n1)c1ccc(C(=O)N[C@@H](CCC(=O)O)C(=O)O)cc1 [MTX, methotrexate, reference compound]
60 Day Survivors (P388/MTX): 0/6 | % ILS (P388/MTX): +15%

CCOC(=O)Nc1cc2c(c(N)n1)N=C(CN(C)c1ccccc1)CN2 [NSC-181928]
microtubule inhibitory activity (microtubule function): microtubule inhibitory activity

CC[C@]1(O)C[C@H]2CN(CCc3c([nH]c4ccccc34)[C@@](C(=O)OC)(c3cc4c(cc3OC)N(C=O)[C@H]3[C@@](O)(C(=O)OC)[C@H](OC(C)=O)[C@]5(CC)C=CCN6CC[C@]43[C@@H]65)C2)C1 [VCR, Vincristine, reference compound]
60 Day Survivors (P388/VCR): 0/6 | % ILS (P388/VCR): +36% | microtubule inhibitory activity (microtubule function): inhibitor of microtubule function

COC(=O)Nc1nc2ccc(C(=O)c3cccs3)cc2[nH]1 [nocodazole]
microtubule inhibitory activity (microtubule function): microtubule inhibitory activity

CCOC(=O)Nc1ccc(SCC2COC(Cn3ccnc3)(c3ccc(Cl)cc3Cl)O2)cc1 (stereo not drawn) [tubulazole]
microtubule inhibitory activity (microtubule function): microtubule inhibitory activity
